Assay results taken from ChEMBL document CHEMBL6134778, “Spiro-Azetidine Oxindoles as Long-Acting Injectables for Pre-Exposure Prophylaxis against Respiratory Syncytial Virus Infections” (J Med Chem, 2024).
Values after ≈ are worked out from the molar mass of the structure shown.

How the values were obtained:
[1] = test system: Respiratory syncytial virus; test: Antiviral activity against RSV A Memphis 37 harboring eGFP infected in human HeLa cells assessed as reduction in virus replication measured after 3 days by laser microscopy; type: functional, organism-based; conditions: A Memphis 37, HeLa, 72 h
[2] = Thermodynamic solubility in aqueous buffer at pH 7 incubated for 24 hrs by UPLC analysis; type: physicochemical; conditions: read-out: Therm_solubility
[3] = test system: Respiratory syncytial virus; test: Antiviral activity against RSV A2 infected in PO or IM dosed BALB/c mouse assessed as reduction in viral titer in BALF by plaque assay; type: functional, organism-based; conditions: human respiratory syncytial virus
[4] = test system: Respiratory syncytial virus; test: Antiviral activity against RSV A/18-001989 harboring eGFP infected in human HeLa cells assessed as reduction in virus replication measured after 3 days by laser microscopy; type: functional, organism-based; conditions: A/18-001989, HeLa, 72 h
[5] = test system: Respiratory syncytial virus; test: Antiviral activity against RSV pSynk-A2F (A2-mKate2) harboring eGFP infected in human HeLa cells assessed as reduction in virus replication measured after 3 days by laser microscopy; type: functional, organism-based; conditions: 72 h
[6] = test system: Rattus norvegicus; test: Particle size for the 50th percentile of the cumulative volume distribution in Sprague-Dawley rat at 50 mg/kg, IM […]; type: ADME, organism-based; conditions: in vivo
[7] = Intrinsic clearance in human liver microsomes assessed per mg protein at 1 uM measured after 60 mins in presence of NADPH by LC-MS/MS analysis; type: ADME, Microsome; conditions: read-out: CLH
[8] = test system: Respiratory syncytial virus; test: Antiviral activity against RSV B/03-034613 harboring eGFP infected in human HeLa cells assessed as reduction in virus replication measured after 3 days by laser microscopy; type: functional, organism-based; conditions: B/03-034613, HeLa, 72 h
[9] = test system: Respiratory syncytial virus; test: Antiviral activity against RSV B/14-006938 harboring eGFP infected in human HeLa cells assessed as reduction in virus replication measured after 3 days by laser microscopy; type: functional, organism-based; conditions: B/14-006938, HeLa, 72 h
[10] = test system: Respiratory syncytial virus; test: Antiviral activity against RSV A2 harboring eGFP infected in human HeLa cells assessed as reduction in virus replication measured after 3 days by laser microscopy; type: functional, organism-based; conditions: 72 h
[11] = test system: Respiratory syncytial virus; test: Antiviral activity against RSV B/17-058221 harboring eGFP infected in human HeLa cells assessed as reduction in virus replication measured after 3 days by laser microscopy; type: functional, organism-based; conditions: B/17-058221, HeLa, 72 h
[12] = test system: Respiratory syncytial virus; test: Antiviral activity against RSV A/13-000323 harboring eGFP infected in human HeLa cells assessed as reduction in virus replication measured after 3 days by laser microscopy; type: functional, organism-based; conditions: A/13-000323, HeLa, 72 h
[13] = Clearance in Beagle dog at 0.25 mg/kg, iv by LC-MS/MS analysis; type: ADME, organism-based, Canis lupus familiaris; conditions: in vivo
[14] = test system: Canis familiaris; test: Release rate constant in Beagle dog at 20 mg/kg, IM by LC-MS/MS analysis; type: ADME, organism-based, Canis lupus familiaris; conditions: in vivo
[15] = test system: Respiratory syncytial virus; test: Antiviral activity against RSV B/05-036549 harboring eGFP infected in human HeLa cells assessed as reduction in virus replication measured after 3 days by laser microscopy; type: functional, organism-based; conditions: B/05-036549, HeLa, 72 h
[16] = test system: Respiratory syncytial virus; test: Antiviral activity against RSV A Long infected in PO dosed cotton rat assessed as reduction in viral titer in BALF administered twice day from 1 day prior to infection to 3 days post-infection by plaque assay; type: functional, organism-based; conditions: human respiratory syncytial virus
[17] = test system: Respiratory syncytial virus; test: Antiviral activity against RSV A Long harboring eGFP infected in human HeLa cells assessed as reduction in virus replication measured after 3 days by laser microscopy; type: functional, organism-based; conditions: 72 h
[18] = test system: Respiratory syncytial virus; test: Antiviral activity against RSV B pSynk-18537F (18537-mKate2) harboring eGFP infected in human HeLa cells assessed as reduction in virus replication measured after 3 days by laser microscopy; type: functional, organism-based; conditions: 72 h
[19] = Intrinsic clearance in human hepatocytes assessed per million cells measured after 6 hrs using tritiated compound by LC-MS/MS analysis; type: ADME, cell-based, Hepatocyte; conditions: read-out: CLH
[20] = test system: Rattus norvegicus; test: Release rate constant in Sprague-Dawley rat at 50 mg/kg, IM measured over 12 weeks by LC-MS/MS analysis; type: ADME, organism-based; conditions: in vivo, 2016 h
[21] = test system: Respiratory syncytial virus; test: Antiviral activity against RSV B/18-002094 harboring eGFP infected in human HeLa cells assessed as reduction in virus replication measured after 3 days by laser microscopy; type: functional, organism-based; conditions: B/18-002094, HeLa, 72 h
[22] = test system: Respiratory syncytial virus; test: Antiviral activity against RSV B/11-050703 harboring eGFP infected in human HeLa cells assessed as reduction in virus replication measured after 3 days by laser microscopy; type: functional, organism-based; conditions: B/11-050703, HeLa, 72 h
[23] = Volume of distribution at steady state in Beagle dog at 0.25 mg/kg, iv by LC-MS/MS analysis; type: ADME, organism-based, Canis lupus familiaris; conditions: in vivo, read-out: Vdss
[24] = Bioavailability in Beagle dog assessed as dose released at 20 mg/kg, IM by LC-MS/MS analysis; type: ADME, organism-based, Canis lupus familiaris; conditions: in vivo
[25] = test system: HeLa; test: Cytotoxicity against human HeLa cells assessed as reduction in cell viability at highest concentration measured after 3 days by ATPlite assay; type: toxicity, cell-based; conditions: 72 h, time 3 day
[26] = Bioavailability in Sprague-Dawley rat assessed as dose released at 50 mg/kg, IM measured over 12 weeks by LC-MS/MS analysis; type: ADME, organism-based; conditions: in vivo
[27] = test system: Canis familiaris; test: Particle size for the 50th percentile of the cumulative volume distribution in Beagle dog at 20 mg/kg, IM […]; type: ADME, organism-based, Canis lupus familiaris; conditions: in vivo
[28] = test system: Respiratory syncytial virus; test: Antiviral activity against RSV A2 harboring eGFP infected in human HeLa cells assessed as reduction in virus replication by measuring 3X protein-adjusted effective concentration for 90% inhibition measured after 3 days in presence of human serum albumin and alpha(1)-acid glycoprotein by laser microscopy; type: functional; conditions: time 3 day
[29] = test system: Respiratory syncytial virus; test: Antiviral activity against RSV B Wash/18537 harboring eGFP infected in human HeLa cells assessed as reduction in virus replication measured after 3 days by laser microscopy; type: functional, organism-based; conditions: B Wash/18537, HeLa, 72 h
[30] = Volume of distribution at steady state in Sprague-Dawley rat at 1 mg/kg, iv by LC-MS/MS analysis; type: ADME, organism-based; conditions: in vivo, read-out: Vdss
[31] = Chromatographic hydrophobicity index, logD of the compound at pH 7.4 by UPLC analysis; type: physicochemical; conditions: buffer
[32] = test system: Respiratory syncytial virus; test: Antiviral activity against RSV A/11-014288 harboring eGFP infected in human HeLa cells assessed as reduction in virus replication measured after 3 days by laser microscopy; type: functional, organism-based; conditions: A/11-014288, HeLa, 72 h
[33] = Clearance in Sprague-Dawley rat at 1 mg/kg, iv by LC-MS/MS analysis; type: ADME, organism-based; conditions: in vivo
[34] = test system: Respiratory syncytial virus; test: Antiviral activity against RSV A2 harboring V76A/Y117H/N517I/L172Q mutant infected in human HeLa cells assessed as reduction in virus replication measured after 3 days by laser microscopy; type: functional, organism-based; conditions: 72 h
[35] = Equilibrium solubility of the compound […] at pH 7 measured after 3 days by LC-MS/MS analysis; type: physicochemical; conditions: time 3 day
[36] = test system: Respiratory syncytial virus; test: Antiviral activity against RSV A/12-049454 harboring eGFP infected in human HeLa cells assessed as reduction in virus replication measured after 3 days by laser microscopy; type: functional, organism-based; conditions: A/12-049454, HeLa, 72 h
[37] = test system: Respiratory syncytial virus; test: Antiviral activity against RSV A/07-041911 harboring eGFP infected in human HeLa cells assessed as reduction in virus replication measured after 3 days by laser microscopy; type: functional, organism-based; conditions: A/07-041911, HeLa, 72 h
[38] = test system: Respiratory syncytial virus; test: Antiviral activity against RSV rgRSV224 (A2-GFP) harboring eGFP infected in human HeLa cells assessed as reduction in virus replication measured after 3 days by laser microscopy; type: functional, organism-based; conditions: 72 h

CS(=O)(=O)N1CC2(C1)C(=O)N(Cc1nc3cc(Cl)ccc3n1CCCC(F)(F)F)c1ccccc12
EC50 [1]: 1.6 nM | solubility thermodynamic at 24 h [2]: < 0.1 µg/mL | EC50 [3]: 0.088 µg/mL (≈ 0.167 µM) | EC50 [4]: 1.6 nM | EC50 [5]: 1.6 nM | Median particle size (D50) [6]: 6.38 um | microsomal CLint at 1 µM [7]: < 7.7 µL/min/mg | EC50 [8]: 1.6 nM | EC50 [9]: 1.6 nM | EC50 [10]: 0.78 nM | EC50 [11]: 1.6 nM | EC50 [12]: 1.6 nM | clearance [13]: 0.46 mL/min/kg | Ka [14]: 0 h⁻¹ | EC50 [15]: 1.6 nM | EC50 [16]: 0.026 µg/mL (≈ 0.0493 µM) | EC50 [17]: 1.6 nM | EC50 [18]: 1.6 nM | hepatocyte CLint [19]: < 1.2 µL/min/1e6 cells | Ka [20]: 0 h⁻¹ | EC50 [21]: 1.6 nM | EC50 [22]: 1.6 nM | Vd [23]: 5.3 L/kg | bioavailability [24]: 50% | Activity [25]: Non-toxic | bioavailability [26]: 52% | Particle size (D50) [27]: 5.06 um | protein-adjusted EC90 [28]: 34 ng/mL | EC50 [29]: 1.6 nM | Vd [30]: 4.43 L/kg | CHI [31]: 3.39 | EC50 [32]: 1.6 nM | clearance [33]: 18.5 mL/min/kg | EC50 [34]: 1.6 nM | solubility at 72 h [35]: < 0.04 µM | EC50 [36]: 1.6 nM | EC50 [37]: 1.6 nM | EC50 [38]: 1.6 nM
